Experimental findings from patent US20260232846A1, “FLUORESCENT PROBE COMPOUND AND COMPOSITE COMPRISING SAME” (KOREA RESEARCH INSTITUTE OF BIOSCIENCE AND BIOTECHNOLOGY, priority 2022, published 2026) are described below.

The subject of data set [1] is MC3T3-E1 cells.
The subject of data set [2] is MC3T3-E1 cells. The data set can be described thus: Dephosphorylation of probe compounds on cell-cultured CDHA (fluorescence images, radiant efficiency). The class given is cell-based. Conditions: CDHA specimen cultured with cells, treated with probe; diffused ALP hydrolysis increased over time in MC3T3-E1 cells. How it is done:
In order to confirm the dephosphorylation of the fluorescent probe compounds by ALP or pH change on CDHA, three bare CDHA specimens and three CDHA specimens cultured with MC3T3-E1 cells and Raw264.7 cells were prepared, the results of examining fluorescence images obtained by treating, the three specimens, one of which was treated with the bone-forming activity marker-sensitive fluorescent probe compound of Synthetic Example 1, another of which was treated with the bone-resorbing activity marker-sensitive fluorescent probe compound of Synthetic Example 2, and the remaining one of which was treated with both the bone-forming activity marker-sensitive fluorescent probe compound and the bone-resorbing activity marker-sensitive fluorescent probe compound, were illustrated in FIG. 11, and the results of measuring fluorescence efficiency (radiant efficiency) in each of six specimens were illustrated in FIGS. 12A and 12B.

Take calcium deficient hydroxyapatite [CDHA]: the “cell proliferation (%)” value with Raw264.7 cells and with MC3T3-E1 cells [1] was about 170% throughout.
As for `CC1(C)C(/C=C/C2=C3Oc4cc(OCc5ccc(OP(=O)(O)O)cc5)ccc4C=C3CCC2)=[N+](CCCCC(=O)NCCCC(O)(P(=O)(O)O)P(=O)(O)O)c2ccccc21` [compound 1-7], the “fluorescence signal (radiant efficiency)” value in the data set with MC3T3-E1 cells [2] was “high fluorescence signal”.
